# Active and inactive are the calls of the source.
# Key:
# [1] = tested on: H9c2; assay: cells; format: functional, cell-based; details: Rattus norvegicus, H9c2, Myocardium;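 note: confirmatory concentration-response retest of ultra-high-throughput screening hits for modulation of myocardial damage; cell death induced by hydrogen peroxide oxidative stress; compound pretreatment for 60 min then peroxide exposure for 2 h; potency is for protecting the cells against peroxide damage rather than for killing them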
# [2] = target: Large T antigen (Simian virus 40, UniProt P03070); format: functional, Betapolyomavirus macacae;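 note: Confirmatory-stage PubChem screen for compounds that inhibit SV40 T antigen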
# [3] = target: Cytochrome P450 2D6 (Homo sapiens, UniProt P10635);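 note: CYP2D6 member of a cytochrome P450 panel assay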
# [4] = target: Eukaryotic translation initiation factor 4E (Mus musculus, UniProt P63073); assay: eIF4E–eIF4G protein interaction inhibitors, dose response, biochemical, TR-FRET (AID 855); format: functional;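 note: potency for disrupting eIF4E binding to eIF4GI seen as loss of FRET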
# [5] = target: T1, Coagulation factor XII (Homo sapiens, UniProt P00748); format: functional;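 note: activated factor XIIa alpha cleaving a fluorogenic AMC peptide substrate; inhibitor potency from loss of enzyme activity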
# T1 sequence (P00748 whole entry): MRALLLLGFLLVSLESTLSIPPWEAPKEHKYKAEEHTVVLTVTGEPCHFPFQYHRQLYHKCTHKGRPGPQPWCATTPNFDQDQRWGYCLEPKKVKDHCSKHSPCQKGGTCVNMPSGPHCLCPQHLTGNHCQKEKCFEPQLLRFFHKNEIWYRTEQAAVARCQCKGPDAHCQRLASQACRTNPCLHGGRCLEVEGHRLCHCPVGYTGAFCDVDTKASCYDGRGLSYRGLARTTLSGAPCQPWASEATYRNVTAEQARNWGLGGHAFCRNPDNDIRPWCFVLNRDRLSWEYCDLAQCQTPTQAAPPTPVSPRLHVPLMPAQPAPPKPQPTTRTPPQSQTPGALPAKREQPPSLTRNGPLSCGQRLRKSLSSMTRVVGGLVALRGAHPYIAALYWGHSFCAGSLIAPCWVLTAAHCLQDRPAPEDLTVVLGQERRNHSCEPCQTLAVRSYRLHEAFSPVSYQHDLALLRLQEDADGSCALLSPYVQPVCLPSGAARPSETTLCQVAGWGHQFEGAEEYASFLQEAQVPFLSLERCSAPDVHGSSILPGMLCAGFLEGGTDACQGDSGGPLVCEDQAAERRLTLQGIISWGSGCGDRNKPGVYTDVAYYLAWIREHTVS
# [6] = target: T2, Corticotropin-releasing factor receptor 2/Corticotropin-releasing factor-binding protein (Homo sapiens, UniProt P24387+Q13324); assay: Dose Response confirmation of uHTS hits for small molecule antagonists of the CRF-binding protein and CRF-R2 receptor complex.; format: functional; details: read-out: IC50_Mean
# T2 sequence (Q13324 whole entry): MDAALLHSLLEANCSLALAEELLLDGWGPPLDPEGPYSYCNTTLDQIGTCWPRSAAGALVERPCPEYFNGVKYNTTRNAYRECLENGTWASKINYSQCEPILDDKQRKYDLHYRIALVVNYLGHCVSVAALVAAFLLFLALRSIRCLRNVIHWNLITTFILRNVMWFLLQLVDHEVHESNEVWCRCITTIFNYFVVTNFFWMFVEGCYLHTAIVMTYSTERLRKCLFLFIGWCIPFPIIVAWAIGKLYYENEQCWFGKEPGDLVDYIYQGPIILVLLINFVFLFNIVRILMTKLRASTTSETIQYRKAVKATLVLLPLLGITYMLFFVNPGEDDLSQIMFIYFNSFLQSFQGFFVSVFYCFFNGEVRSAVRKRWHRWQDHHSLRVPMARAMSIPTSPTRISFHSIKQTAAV
# T2 sequence (P24387 whole entry): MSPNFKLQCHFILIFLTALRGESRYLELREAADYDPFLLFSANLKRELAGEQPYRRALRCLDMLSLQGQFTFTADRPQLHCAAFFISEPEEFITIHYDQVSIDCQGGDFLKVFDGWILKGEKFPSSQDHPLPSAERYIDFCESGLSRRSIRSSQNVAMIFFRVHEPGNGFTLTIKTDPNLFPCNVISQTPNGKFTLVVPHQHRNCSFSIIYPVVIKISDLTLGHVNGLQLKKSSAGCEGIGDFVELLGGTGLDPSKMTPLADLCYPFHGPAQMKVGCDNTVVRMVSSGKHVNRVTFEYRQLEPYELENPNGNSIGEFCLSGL
# [7] = target: T2, Corticotropin-releasing factor receptor 2/Corticotropin-releasing factor-binding protein; assay: activators of CRF receptor 2 with binding protein – uHTS hits, confirmation (AID 602473); format: functional; details: read-out: EC50_Mean
# [8] = target: Induced myeloid leukemia cell differentiation protein Mcl-1 (Homo sapiens, UniProt Q07820); format: functional
# [9] = target: T3, Endoribonuclease toxin MazF (Escherichia coli K-12, UniProt P0AE70); assay: MazF toxin RNase activators, dose response, biochemical, fluorescence, single-stranded RNA substrate, uHTS hits (AID 588481); format: functional
# T3 sequence (P0AE70 whole entry): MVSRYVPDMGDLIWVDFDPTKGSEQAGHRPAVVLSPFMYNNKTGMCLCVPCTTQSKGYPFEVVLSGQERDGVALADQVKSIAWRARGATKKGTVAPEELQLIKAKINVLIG
# [10] = target: T3, Endoribonuclease toxin MazF; assay: fluorescent RNA oligo signal without MazF, dose response, counter-screen for MazEF activator project, biochemical, fluorescence, single-stranded RNase substrate (AID 588502); format: functional
# [11] = HEp-2 cell cytotoxicity, dose response, cytotoxicity control for RSV inhibitor project, HTS (AID 2410); format: functional; details: human respiratory syncytial virus
# Large T antigen, sequence (P03070 whole entry): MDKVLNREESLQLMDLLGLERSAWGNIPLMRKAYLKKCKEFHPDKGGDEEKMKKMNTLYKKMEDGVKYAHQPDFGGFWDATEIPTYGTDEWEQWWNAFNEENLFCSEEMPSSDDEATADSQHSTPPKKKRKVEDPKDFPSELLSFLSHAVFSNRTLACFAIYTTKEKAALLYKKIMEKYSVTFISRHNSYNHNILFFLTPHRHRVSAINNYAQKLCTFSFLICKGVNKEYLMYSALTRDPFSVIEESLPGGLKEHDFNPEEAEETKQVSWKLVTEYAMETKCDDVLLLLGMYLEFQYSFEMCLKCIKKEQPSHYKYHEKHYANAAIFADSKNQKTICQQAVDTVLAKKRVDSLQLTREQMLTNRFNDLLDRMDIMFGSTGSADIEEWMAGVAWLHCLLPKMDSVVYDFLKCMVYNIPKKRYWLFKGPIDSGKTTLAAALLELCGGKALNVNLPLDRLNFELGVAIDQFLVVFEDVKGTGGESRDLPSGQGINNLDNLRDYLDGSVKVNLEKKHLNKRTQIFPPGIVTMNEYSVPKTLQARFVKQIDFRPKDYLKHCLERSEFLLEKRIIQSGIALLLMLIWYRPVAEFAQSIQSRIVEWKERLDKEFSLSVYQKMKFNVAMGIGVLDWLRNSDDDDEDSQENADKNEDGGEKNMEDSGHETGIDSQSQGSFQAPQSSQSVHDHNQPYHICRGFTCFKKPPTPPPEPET
# Eukaryotic translation initiation factor 4E, sequence (P63073 whole entry): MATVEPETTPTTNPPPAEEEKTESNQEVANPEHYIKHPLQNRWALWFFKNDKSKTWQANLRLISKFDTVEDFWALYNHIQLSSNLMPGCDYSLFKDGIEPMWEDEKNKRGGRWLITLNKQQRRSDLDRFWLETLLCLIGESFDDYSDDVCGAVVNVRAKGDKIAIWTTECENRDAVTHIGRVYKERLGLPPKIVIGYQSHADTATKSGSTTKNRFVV
# Induced myeloid leukemia cell differentiation protein Mcl-1, sequence (Q07820 whole entry): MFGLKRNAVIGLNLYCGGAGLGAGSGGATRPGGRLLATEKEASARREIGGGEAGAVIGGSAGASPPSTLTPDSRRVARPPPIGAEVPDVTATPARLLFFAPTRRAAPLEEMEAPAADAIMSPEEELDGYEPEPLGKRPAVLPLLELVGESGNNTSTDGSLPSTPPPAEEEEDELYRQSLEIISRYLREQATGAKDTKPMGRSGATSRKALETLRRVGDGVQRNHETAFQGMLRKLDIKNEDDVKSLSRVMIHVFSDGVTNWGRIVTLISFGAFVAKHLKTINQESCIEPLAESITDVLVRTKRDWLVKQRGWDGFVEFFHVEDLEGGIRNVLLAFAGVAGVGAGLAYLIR
# Cytochrome P450 2D6, sequence (P10635 whole entry): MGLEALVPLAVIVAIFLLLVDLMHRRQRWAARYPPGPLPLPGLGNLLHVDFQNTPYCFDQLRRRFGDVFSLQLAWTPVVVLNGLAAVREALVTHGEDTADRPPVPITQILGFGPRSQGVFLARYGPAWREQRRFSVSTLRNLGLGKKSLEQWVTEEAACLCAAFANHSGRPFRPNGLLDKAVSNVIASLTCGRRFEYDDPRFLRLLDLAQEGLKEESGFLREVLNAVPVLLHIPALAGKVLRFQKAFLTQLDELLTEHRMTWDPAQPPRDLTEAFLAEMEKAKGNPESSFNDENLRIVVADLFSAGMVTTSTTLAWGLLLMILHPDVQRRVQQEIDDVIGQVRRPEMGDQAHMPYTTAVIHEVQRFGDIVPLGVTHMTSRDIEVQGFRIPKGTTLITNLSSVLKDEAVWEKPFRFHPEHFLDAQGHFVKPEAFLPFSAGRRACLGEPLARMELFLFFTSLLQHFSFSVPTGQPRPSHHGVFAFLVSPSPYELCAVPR
compound,measurement,setting,value
O=c1cc(CSc2nc(O)c3ccccc3n2)c2ccc(O)cc2o1,IC50,[1],> 79 µM (inactive)
CSc1nc(O)c2c3c(sc2n1)CCC3,IC50,[1],> 79 µM (inactive)
Nc1ccc(-c2sc(N)nc2-c2ccccc2)cc1,IC50,[2],14.5 µM (active)
same,AC50,[3],17.8 µM (inconclusive)
CC(=O)OC1=C(C#N)Cn2ccc3cccc1c32,IC50,[4],> 64 µM (inactive)
C=CCOc1c(CNc2ccc3[nH]c(O)nc3c2)cccc1OC,IC50,[2],96.9 µM (active)
CCOc1ccc2nc(O)c(C(c3nnnn3C3CCCCC3)N3CCN(C)CC3)cc2c1 (configuration not stated),IC50,[5],> 50 µM (inactive)
Brc1cccc(C2CC(c3ccccc3)n3nnnc3N2)c1 (configuration not stated),IC50,[4],> 64 µM (inactive)
same,IC50,[6],> 47.1 µM (inactive)
same,EC50,[7],> 53 µM (inactive)
O=C(NC(=S)Nc1ccc(O)cc1)c1ccccc1Cl,IC50,[2],6.97 µM (active)
CN(C)c1ccc(NC(=O)c2ccc([N+](=O)[O-])cc2Cl)cc1,IC50,[8],1.11 µM (not active)
CCN1C(=S)SC(=O)C1=C1C=C(C)OC(C)=C1,EC50,[9],> 99 µM (inactive)
same,EC50,[10],> 99 µM (inactive)
N#C/C(=C\Nc1ccc2c(c1)OCCO2)c1nc2ccccc2[nH]1,CC50,[11],21.4 µM (active)
same,IC50,[1],> 79 µM (inactive)
COC(=O)c1c(NC(=O)c2c(-c3ccccc3Cl)noc2C)sc2c1CCC2,IC50,[5],4.24 µM (active)
